Patent US20230172990A1, “EXTRACELLULAR VESICLE COMPOSITIONS AND THE USE THEREOF IN THE TREATMENT OF SKIN CONDITIONS AND IN IMMUNE MODULATION” (priority 2020, published 2023)

How the values were obtained:
[1] = system: streptozotocin-induced diabetic mouse punch biopsy model; assay: Mouse punch biopsy wound healing model (streptozotocin-induced diabetic mice); type: in vivo; conditions: elderly AT-MSCs cultured 24 hours with 20 μM Eda, 1 mM NAC or 2 μM AA
Protocol: The effect of the anti-oxidative agents Eda, NAC and AA on the wound healing ability of elderly AT-MSCs was investigated using the mouse punch biopsy model, as described in Dunn et al., J Vis Exp. (75): 50265, 2013). Briefly, 7-week-old male C57BL/6 mice were anesthetized using avertin and shaved. Two wounds were established using 5 mm biopsy punch in the mice upper dorsal area. MSCs (5×10^5 cells/wound) or EVs (4 μg/wound) were injected at 4 points surrounding the punch area. Each mouse had two punched wounds, (1) PBS and (2) cells or EV-treatment. A splint was stitched to the surrounding wound areas and covered with Tegaderm (3M, USA), and the wound sites were observed every day. The images of the wound areas were captured, and the necrotic areas were analyzed using Image J software (NIH, MD).

elderly AT-MSCs [2] = assay: Cell senescence, senescence associated (SA) β-galactosidase activity; type: cell-based, human; conditions: 6 or 12 passages of culture with 20 μM Eda
Protocol: (§1) While not wishing to be bound by theory, the oxidative stress and resulting accumulation of ROS are believed to relate to the impaired function of elderly AT-MSCs. The effects of anti-oxidative agents on elderly AT-MSCs were tested and the expression of ROS in elderly AT-MSCs were measured following culture in the presence of 20 μM Edaravone (Eda), 1 mM N-acetylcysteine (NAC), or 2 μM Ascorbic Acid (AA), respectively. […] The concentration of Eda, NAC and AA was maintained in the culture media throughout the culture period. The effects of anti-oxidative agents on cell senescence were also investigated. Cell senescence was assessed by measuring the activity of senescence associated (SA) β-galactosidase following 6 or 12 passages of culture in the presence of 20 μM Eda, 1 mM NAC, or 2 μM AA. […] In FIGS. 3A, 3B and 3C, *=P<0.05, **=P<0.01, and ns=not significant.

elderly AT-MSCs [3] = assay: Intracellular ROS level (H2-DCFDA fluorescence) in AT-MSCs; type: cell-based, human; conditions: 20 μM Eda; for ROS levels in elderly AT-MSCs after 24 hours of culture with agent: 1 mM NAC, 2 μM AA
Protocol: The expression of ROS in infant- and elderly-derived ATMSCs was evaluated. The intracellular ROS level was measured using 2′,7′-dichlorodihydrofluorescein diacetate (H2-DCFDA, Invitrogen) according to the manufacturer's instructions. Briefly, after reaching 80% confluence, the ATMSCs were washed with PBS and incubated with PBS containing 10 μM H2-DCFDA at 37° C. for 30 minutes. The fluorescence intensity was analyzed by absorbance at 495 nm and 525 nm wavelengths using a photoemission spectrophotometer (Corona Electric, Japan).
as §1

| SMILES | Wound healing ability of elderly AT-MSCs cultured with the agent [1] | (SA) β-galactosidase activity (cell senescence) (elderly AT-MSCs [2]) | ROS levels in elderly AT-MSCs after 24 hours of culture with agent (elderly AT-MSCs [3]) | ROS reducing effect in elderly AT-MSCs following 1 cell passage (elderly AT-MSCs [3]; 1 cell passage) |
| --- | --- | --- | --- | --- |
| CC1=NN(c2ccccc2)C(=O)C1 [Eda, Edaravone] | significantly improved wound healing | reduced (SA) β-galactosidase activity | reduced ROS levels | ROS reducing effects of Eda were evident |
| O=C1O[C@H]([C@@H](O)CO)C(O)=C1O [AA, Ascorbic Acid] | no effect |  | reduced ROS levels |  |
| CC(=O)N[C@@H](CS)C(=O)O [NAC, N-acetylcysteine] | no effect |  | reduced ROS levels |  |
